According to US9981940B2, “Aryl sulfide derivatives and aryl sulfoxide derivatives as acaricides and insecticides” (BAYER CROPSCIENCE AKTIENGESELLSCHAFT, priority 2013, dated 2018):

Key:
Tetranychus urticae = Tetranychus urticae spray test, OP-resistant (TETRUR); format: in vivo; settings: after 6 days
How it was run: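 Mortality as % efficacy (0% = no mites killed) read 6 days after spraying. Formulation: active ingredient in acetone/dimethylformamide plus emulsifier, diluted with emulsifier-containing water, applied to Phaseolus vulgaris leaf discs carrying every life stage of OP-resistant spider mites.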

[1] = log P by HPLC (OECD Guideline 117), method [a] acidic range; format: physicochemical; settings: HPLC, method [a] acidic range
Method: (§1) The log P values were determined analogously to OECD Guideline 117 (EC Directive 92/69/EEC) by HPLC (high-performance liquid chromatography) using reversed-phase columns (C 18), by the following methods:
[a] The LC-MS determination in the acidic range is effected at pH 2.7 with 0.1% aqueous formic acid and acetonitrile (contains 0.1% formic acid) as eluents; linear gradient from 10% acetonitrile to 95% acetonitrile.

[2] = log P by HPLC (OECD Guideline 117), method [b] neutral range; format: physicochemical; settings: HPLC, method [b] neutral range
Method: as §1
[b] The LC-MS determination in the neutral range is effected at pH 7.8 with 0.001 molar aqueous ammonium hydrogencarbonate solution and acetonitrile as eluents; linear gradient from 10% acetonitrile to 95% acetonitrile.

SMILES	logP[a] [1]	logP[b] [2]	efficacy (Tetranychus urticae; application rate of 500 g/ha)	efficacy (Tetranychus urticae; application rate of 100 g/ha)
COc1nn(-c2cc([S+]([O-])CC(F)(F)F)c(Cl)cc2Cl)c(=O)n1C (stereo not drawn) [Example 97]	2.26	2.24	90%	
CCCOc1nn(-c2cc(SCC(F)(F)F)c(C)cc2F)c(=O)n1C1CC1 [Example 113]	4.00	3.92	90%	
COc1nn(-c2cc(SCC(F)(F)F)c(Cl)cc2F)c(=O)n1C1CC1 [Example 114]	3.32	3.27	100%	
CCOc1nn(-c2cc(SCC(F)(F)F)c(C)cc2F)c(=O)n1C1CC1 [Example 120]	3.58	3.44	100%	
CCCCOc1nn(-c2cc([S+]([O-])CC(F)(F)F)c(C)cc2F)c(=O)n1C1CC1 (stereo not drawn) [Example 124]	3.24	3.20		90%
CCCCOc1nn(-c2ccc(C)c(SCC(F)(F)F)c2)c(=O)n1C1CC1 [Example 126]	5.11	5.02	90%	
CCCCOc1nn(-c2cc(SCC(F)(F)F)c(C)cc2F)c(=O)n1C [Example 128]	4.11	3.95	90%	
CCCOc1nn(-c2cc([S+]([O-])CC(F)(F)F)c(C)cc2F)c(=O)n1C (stereo not drawn) [Example 132]	2.52	2.47	100%	
CCCOc1nn(-c2ccc(C)c([S+]([O-])CC(F)(F)F)c2)c(=O)n1C (stereo not drawn) [Example 133]	2.93	2.86	90%	
C=C(C)CCOc1nn(-c2cc(SCC(F)(F)F)c(C)cc2F)c(=O)n1C1CC1 [Example 136]	4.37	4.33	90%	
C=C(C)CCOc1nn(-c2cc([S+]([O-])CC(F)(F)F)c(C)cc2F)c(=O)n1C1CC1 (stereo not drawn) [Example 137]	3.25	3.17	90%	
CCC(C)Oc1nn(-c2cc([S+]([O-])CC(F)(F)F)c(C)cc2F)c(=O)n1C1CC1 (stereo not drawn) [Example 141]	3.18	3.12	90%	
COc1nn(-c2ccc(C(F)(F)F)c(SCC(F)(F)F)c2)c(=O)n1C1CC1 [Example 144]	4.14	3.85	90%	
Cc1cc(F)c(-n2nc(OCC(C)C)n(C)c2=O)cc1SCC(F)(F)F [Example 148]	4.03	3.92	90%	
Cc1cc(F)c(-n2nc(OC(C)C)n(C)c2=O)cc1SCC(F)(F)F [Example 151]	3.61	3.53	100%	
Cc1cc(F)c(-n2nc(OC3CCCCC3)n(C)c2=O)cc1SCC(F)(F)F [Example 153]	4.50	4.44	100%	
Cc1cc(F)c(-n2nc(Oc3ccccc3)n(C)c2=O)cc1[S+]([O-])CC(F)(F)F (stereo not drawn) [Example 159]	2.70	2.65	100%	
Cc1cc(F)c(-n2nc(OC3CCCCC3)n(C)c2=O)cc1[S+]([O-])CC(F)(F)F (stereo not drawn) [Example 164]	3.29	3.22	90%	
Cc1cc(F)c(-n2nc(OCC(C)(C)C)n(C)c2=O)cc1[S+]([O-])CC(F)(F)F (stereo not drawn) [Example 165]	3.21	3.15	100%	
Cc1cc(F)c(-n2nc(OC(C)C)n(C)c2=O)cc1[S+]([O-])CC(F)(F)F (stereo not drawn) [Example 166]	2.48	2.44	90%	
COc1nn(-c2cc(SCC(F)(F)F)c(F)cc2F)c(=O)n1C1CC1 [Example 171]	2.97	2.92	100%	
COc1nn(-c2cc(SCC(F)(F)F)c(Br)cc2F)c(=O)n1C [Example 175]	3.04	2.98		100%
Cc1ccc(-n2nc(OCc3ccccc3)n(C)c2=O)cc1[S+]([O-])CC(F)(F)F (stereo not drawn) [Example 178]	3.23	3.18	90%	

Now from value to molecule, other results behind:

logP[a] [1]	logP[b] [2]	SMILES	efficacy (Tetranychus urticae; application rate of 500 g/ha)	efficacy (Tetranychus urticae; application rate of 100 g/ha)
4.59	4.54	Cc1ccc(-n2nc(OC(C)C)n(C3CC3)c2=O)cc1SCC(F)(F)F [Example 91]	100%	
2.82	2.79	Cc1cc(F)c(-n2nc(OC(C)C)n(C3CC3)c2=O)cc1[S+]([O-])CC(F)(F)F (stereo not drawn) [Example 100]	100%	
2.83	2.79	CCCOc1nn(-c2cc([S+]([O-])CC(F)(F)F)c(C)cc2F)c(=O)n1C1CC1 (stereo not drawn) [Example 112]	90%	
2.47	2.43	CCOc1nn(-c2cc([S+]([O-])CC(F)(F)F)c(C)cc2F)c(=O)n1C1CC1 (stereo not drawn) [Example 121]	100%	
4.19	4.04	CCOc1nn(-c2ccc(C)c(SCC(F)(F)F)c2)c(=O)n1C1CC1 [Example 122]	100%	
4.66	4.57	CCCOc1nn(-c2ccc(C)c(SCC(F)(F)F)c2)c(=O)n1C1CC1 [Example 123]	100%	
4.41	4.35	CCCCOc1nn(-c2cc(SCC(F)(F)F)c(C)cc2F)c(=O)n1C1CC1 [Example 125]	90%	
3.61	3.57	CCCOc1nn(-c2cc(SCC(F)(F)F)c(C)cc2F)c(=O)n1C [Example 127]	100%	
3.19	3.14	CCOc1nn(-c2cc(SCC(F)(F)F)c(C)cc2F)c(=O)n1C [Example 129]	90%	
3.77	3.74	CCOc1nn(-c2ccc(C)c(SCC(F)(F)F)c2)c(=O)n1C [Example 130]	90%	
2.13	2.09	CCOc1nn(-c2cc([S+]([O-])CC(F)(F)F)c(C)cc2F)c(=O)n1C (stereo not drawn) [Example 131]	90%	
3.99	3.90	Cc1cc(F)c(-n2nc(OCC3CC3)n(C3CC3)c2=O)cc1SCC(F)(F)F [Example 134]	90%	
3.66	3.58	Cc1cc(F)c(-n2nc(OCC3CC3)n(C)c2=O)cc1SCC(F)(F)F [Example 143]	90%	
2.83	2.76	COCCOc1nn(-c2cc(SCC(F)(F)F)c(C)cc2F)c(=O)n1C [Example 149]	100%	
2.90	2.83	Cc1cc(F)c(-n2nc(OCC(C)C)n(C)c2=O)cc1[S+]([O-])CC(F)(F)F (stereo not drawn) [Example 152]	90%	
5.22	5.17	Cc1ccc(-n2nc(OC3CCCCC3)n(C)c2=O)cc1SCC(F)(F)F [Example 155]	100%	
3.70	3.66	Cc1cc(F)c(-n2nc(Oc3ccccc3)n(C)c2=O)cc1SCC(F)(F)F [Example 158]	100%	
3.67	3.57	Cc1ccc(-n2nc(OCC(C)(C)C)n(C)c2=O)cc1[S+]([O-])CC(F)(F)F (stereo not drawn) [Example 162]	90%	
1.81	1.77	COc1nn(-c2cc([S+]([O-])CC(F)(F)F)c(F)cc2F)c(=O)n1C (stereo not drawn) [Example 169]	90%	
2.15	2.11	COc1nn(-c2cc([S+]([O-])CC(F)(F)F)c(F)cc2F)c(=O)n1C1CC1 (stereo not drawn) [Example 170]	100%	
2.57	2.53	COc1nn(-c2cc([S+]([O-])CC(F)(F)F)c(Br)cc2F)c(=O)n1C1CC1 (stereo not drawn) [Example 172]	100%	
3.43	3.36	COc1nn(-c2cc(SCC(F)(F)F)c(Br)cc2F)c(=O)n1C1CC1 [Example 173]	100%	
2.92	2.85	Cc1cc(F)c(-n2nc(OCc3ccccc3)n(C)c2=O)cc1[S+]([O-])CC(F)(F)F (stereo not drawn) [Example 177]		100%
3.16	3.10	CCn1c(OC)nn(-c2cc(SCC(F)(F)F)c(C)cc2F)c1=O [Example 180]	100%	
3.30	3.24	C=CCn1c(OC)nn(-c2cc(SCC(F)(F)F)c(C)cc2F)c1=O [Example 182]	100%	
2.82	2.76	Cc1cc(F)c(-n2nc(OC(C)(C)C)n(C)c2=O)cc1[S+]([O-])CC(F)(F)F (stereo not drawn) [Example 184]	100%	
4.14	4.10	O=c1n(-c2cc(SCC(F)(F)F)c(Cl)cc2Cl)nc(OCC(F)(F)F)n1C1CC1 [Example 185]	90%	
3.98	3.93	Cc1cc(Cl)c(-n2nc(OCC(F)(F)F)n(C3CC3)c2=O)cc1SCC(F)(F)F [Example 187]	90%	
